# Measurements: US20230293708A1, “CONJUGATE OF SAPONIN AND SINGLE-DOMAIN ANTIBODY, PHARMACEUTICAL COMPOSITION COMPRISING SAID CONJUGATE, THERAPEUTIC USE THEREOF” (SAPREME TECHNOLOGIES B.V., priority 2020, published 2023)
# Like-named read-outs stand apart in the source and are kept apart here.
# Assays:
# Assay in all cases: Cell viability (MTS) assay, cell killing
# Format in all cases: cell-based, human
# [1] = test system: CaSki cells
# Experimental: (§1) Cells were seeded in a 96 well plate at 5.000-10.000 c/w in 100 μL/well and incubated overnight at 37° C. […] The media was removed from the cell culture plate and replaced by 180 μL culture media, followed by the addition of 20 μL treatment-mix/well. […] In the case that endosomal acidification inhibitors (chloroquine (Sigma Aldrich) or bafilomycin A1 (Enzo Life Sciences)) were used, the cell culture media in step 1 of treatment was replaced by 180 μL media containing 1 μM chloroquine or 0.2 μM bafilomycin A1. The plate was incubated for 1 hour at 37° C., before the 10× treatment-mix samples were added. The remaining incubation and treatment steps were performed according to standard procedures known in the field.
# (§2) After treatment the cells were incubated for 72 hr at 37° C. before the cell viability was determined by a MTS-assay, performed according to the manufacturer's instruction (CellTiter 96® AQueous One Solution Cell Proliferation Assay, Promega). Briefly, the MTS solution was diluted 20× in DMEM without phenol red (PAN-Biotech GmbH) supplemented with 10% FBS (PAN-Biotech GmbH). The cells were washed once with 200 μL PBS per well, after which 100 μL diluted MTS solution was added per well. The plate was incubated for approximately 20-30 minutes at 37° C. Subsequently, the optical density at 492 nm was measured on a Thermo Scientific Multiskan FC plate reader (Thermo Scientific). For quantification the background signal of ‘medium only’ wells was subtracted from all other wells, before the ratio of […].
# [2] = test system: HeLa cells; conditions: + 1500 nM SO1861 (unconjugated)
# Experimental: as §1, §2
# [3] = test system: JIMT-1 cells; conditions: + 1500 nM SO1861 (unconjugated)
# Experimental: as §1, §2
# [4] = test system: A431 cells
# Experimental: (§3) After treatment the cells were incubated for 72 hr at 37° C. before the cell viability was determined by a MTS-assay, performed according to the manufacturer's instruction (CellTiter 96® AQueous One Solution Cell Proliferation Assay, Promega). Briefly, the MTS solution was diluted 20× in DMEM without phenol red (PAN-Biotech GmbH) supplemented with 10% FBS. The cells were washed once with 200 μL/PBS well, after which 100 μL diluted MTS solution was added/well. The plate was incubated for approximately 20-30 minutes at 37° C. Subsequently, the OD at 492 nm was measured on a Thermo Scientific Multiskan FC plate reader (Thermo Scientific). For quantification the background signal of ‘medium only’ wells was subtracted from all other wells, before the cell viability percentage of treated/untreated cells was calculated, by dividing the background corrected signal of treated wells over the background corrected signal of the untreated wells (×100).
# (§4) Cells were seeded in a 96 well plate at 5.000-10.000 c/w in 100 μL/well and incubated overnight at 37° C. […] The media was removed from the cell culture plate and replaced by 180 μL culture media, followed by the addition of 20 μL treatment-mix/well. […]
# as §2, with “Briefly, the MTS solution was diluted 20× in DMEM without phenol red (PAN-Biotech GmbH) supplemented with 10% FBS (PAN-Biotech GmbH). The cells were washed once with 200 μL PBS per well, after which 100 μL diluted MTS solution was added per well. The plate was incubated for approximately 20-30 minutes at 37° C.” left out
# [5] = test system: SK-BR-3 cells; conditions: read-out: IC50 (calculated on concentration SO1861), + fixed 1.5 pM EGF-dianthin
# Experimental: as §3, §4
# as §2, with “Briefly, the MTS solution was diluted 20× in DMEM without phenol red (PAN-Biotech GmbH) supplemented with 10% FBS (PAN-Biotech GmbH). The cells were washed once with 200 μL PBS per well, after which 100 μL diluted MTS solution was added per well. The plate was incubated for approximately 20-30 minutes at 37° C.” left out
# [6] = read-out: IC50 (calculated on concentration SO1861), SO1861 or mAb-SO1861 titrated + fixed 50 pM trastuzumab-saporin
Compound,"IC50 ([1]; + 1500 nM SO1861 (unconjugated), read-out: IC50)",IC50 [2],IC50 [3],"IC50 ([4]; read-out: IC50 (calculated on concentration SO1861), + fixed 10 pM cetuximab-saporin)","IC50 [4, 6]",IC50 [5],"IC50 [1, 6]"
Saporin,0.015 nM,0.03 nM,0.03 nM,–,–,–,–
CC(=O)O[C@H]1[C@H](O[C@@H]2OC[C@@H](O)[C@H](O)[C@H]2O)[C@@H](O)[C@H](O[C@@H]2[C@H](O)[C@@H](O[C@@H]3O[C@@H](C)[C@H](O[C@@H]4OC[C@@H](O)[C@H](O[C@@H]5OC[C@@H](O)[C@H](O)[C@H]5O)[C@H]4O)[C@@H](O)[C@H]3O)[C@H](OC(=O)[C@]34CCC(C)(C)C[C@H]3C3=CC[C@@H]5[C@@]6(C)CC[C@H](O[C@H]7O[C@H](C(=O)O)[C@@H](O)[C@H](O[C@@H]8OC[C@@H](O)[C@H](O)[C@H]8O)[C@H]7O[C@@H]7O[C@H](CO)[C@H](O)[C@H](O)[C@H]7O)[C@@](C)(C=O)[C@@H]6CC[C@@]5(C)[C@]3(C)C[C@H]4O)O[C@@H]2C)O[C@@H]1C [SO1861],–,–,–,600 nM,≥ 1000 nM,800 nM,≥ 1000 nM
